Columns and labels:
Assay in all cases: Caliper, Mobility shift assay off-chip
[1] = target: PDGFRA (human) (UniProt P16234)
[2] = target: STK3 (human) (UniProt Q13188)
[3] = target: PDGFRB (human) (UniProt P09619)
[4] = target: STK33 (human) (UniProt Q9BYT3)
[5] = target: CDC42BPA (human) (UniProt Q5VT25)
[6] = target: MAPKAPK3 (human) (UniProt Q16644)
[7] = target: AKT2 (human) (UniProt P31751)
[8] = target: PRKCZ (human) (UniProt Q05513)
[9] = target: EGFR (human) (UniProt P00533)
[10] = target: CDK6 CCND3 (human) (UniProt Q00534+P30281)
[11] = target: NEK3 (human) (UniProt P51956)
[12] = target: CDK3 CCNE1 (human) (UniProt P24864+Q00526)
[13] = target: PTK2 (human) (UniProt Q05397)
[14] = target: EPHB4 (human) (UniProt P54760)
[15] = target: MAP2K7 (human) (UniProt O14733)
[16] = target: DYRK2 (human) (UniProt Q92630)
[17] = target: HIPK3 (human) (UniProt Q9H422)
[18] = target: TNK2 (human) (UniProt Q07912)
[19] = target: DAPK1 (human) (UniProt P53355)
[20] = target: STK24 (human) (UniProt Q9Y6E0)
[21] = target: LCK (human) (UniProt P06239)
[22] = target: TSSK1B (human) (UniProt Q9BXA7)
[23] = target: GCK (human) (UniProt Q12851)
[24] = target: FLT3 (human) (UniProt P36888)
[25] = target: TAOK3 (human) (UniProt Q9H2K8)
[26] = target: STK10 (human) (UniProt O94804)
[27] = target: STK17A (human) (UniProt Q9UEE5)
[28] = target: PRKACA (human) (UniProt P17612)
[29] = target: PKN2 (human) (UniProt Q16513)
[30] = target: MAPK9 (human) (UniProt P45984)
[31] = target: PRKCE (human) (UniProt Q02156)
[32] = target: CSF1R (human) (UniProt P07333)
[33] = target: CDK9 CCNT1 (human) (UniProt O60563+P50750)
CDK9 CCNT1 (human), sequence (O60563 whole entry, looked up): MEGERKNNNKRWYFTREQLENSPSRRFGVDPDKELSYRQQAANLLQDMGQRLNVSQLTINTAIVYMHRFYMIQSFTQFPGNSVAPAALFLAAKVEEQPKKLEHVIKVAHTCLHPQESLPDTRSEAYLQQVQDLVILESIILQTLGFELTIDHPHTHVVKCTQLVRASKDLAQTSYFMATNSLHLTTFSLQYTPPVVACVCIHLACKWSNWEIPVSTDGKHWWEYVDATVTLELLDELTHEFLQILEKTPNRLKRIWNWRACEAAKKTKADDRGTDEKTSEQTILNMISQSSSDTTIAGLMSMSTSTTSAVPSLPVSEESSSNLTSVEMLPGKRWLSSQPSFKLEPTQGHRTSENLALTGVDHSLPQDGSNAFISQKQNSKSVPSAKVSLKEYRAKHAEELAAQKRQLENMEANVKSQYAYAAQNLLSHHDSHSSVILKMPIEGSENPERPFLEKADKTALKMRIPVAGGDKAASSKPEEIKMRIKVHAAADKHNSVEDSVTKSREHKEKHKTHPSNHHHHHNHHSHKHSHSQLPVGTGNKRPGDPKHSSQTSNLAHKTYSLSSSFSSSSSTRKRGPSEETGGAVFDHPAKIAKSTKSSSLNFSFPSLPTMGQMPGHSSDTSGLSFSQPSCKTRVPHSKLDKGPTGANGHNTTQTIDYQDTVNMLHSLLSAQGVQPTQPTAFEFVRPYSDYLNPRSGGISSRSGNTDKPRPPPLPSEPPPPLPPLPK
CDK9 CCNT1 (human), sequence (P50750 whole entry, looked up): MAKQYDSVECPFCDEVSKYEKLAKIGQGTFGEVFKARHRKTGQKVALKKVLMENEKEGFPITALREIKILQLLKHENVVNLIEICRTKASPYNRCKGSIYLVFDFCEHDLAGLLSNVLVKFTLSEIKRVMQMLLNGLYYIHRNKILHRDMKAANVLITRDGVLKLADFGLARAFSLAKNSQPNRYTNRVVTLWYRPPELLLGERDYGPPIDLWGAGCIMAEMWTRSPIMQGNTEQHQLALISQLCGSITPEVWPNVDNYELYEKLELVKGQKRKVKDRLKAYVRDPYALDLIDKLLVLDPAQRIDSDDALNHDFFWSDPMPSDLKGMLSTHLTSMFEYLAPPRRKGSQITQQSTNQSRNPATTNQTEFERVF

[34] = target: EPHA8 (human) (UniProt P29322)
[35] = target: FER (human) (UniProt P16591)
[36] = system: ABL1 (human), P00519 [T315I]
[37] = target: SGK2 (human) (UniProt Q9HBY8)
[38] = target: MAP2K6 (human) (UniProt P52564)
[39] = target: ABL1 (human) (UniProt P00519)
[40] = target: MELK (human) (UniProt Q14680)
[41] = target: DAPK2 (human) (UniProt Q9UIK4)
DAPK2 (human), sequence (Q9UIK4 whole entry, looked up): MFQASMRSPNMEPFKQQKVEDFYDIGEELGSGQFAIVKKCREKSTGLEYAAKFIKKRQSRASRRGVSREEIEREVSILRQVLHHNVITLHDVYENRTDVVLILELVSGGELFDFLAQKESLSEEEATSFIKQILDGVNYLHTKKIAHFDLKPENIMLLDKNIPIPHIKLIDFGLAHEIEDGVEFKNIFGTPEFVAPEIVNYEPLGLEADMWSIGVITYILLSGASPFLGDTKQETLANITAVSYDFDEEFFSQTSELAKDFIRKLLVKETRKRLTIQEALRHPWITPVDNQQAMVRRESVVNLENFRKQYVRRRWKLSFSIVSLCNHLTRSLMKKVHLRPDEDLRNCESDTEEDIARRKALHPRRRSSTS

PDGFRB (human), sequence (P09619 whole entry, looked up): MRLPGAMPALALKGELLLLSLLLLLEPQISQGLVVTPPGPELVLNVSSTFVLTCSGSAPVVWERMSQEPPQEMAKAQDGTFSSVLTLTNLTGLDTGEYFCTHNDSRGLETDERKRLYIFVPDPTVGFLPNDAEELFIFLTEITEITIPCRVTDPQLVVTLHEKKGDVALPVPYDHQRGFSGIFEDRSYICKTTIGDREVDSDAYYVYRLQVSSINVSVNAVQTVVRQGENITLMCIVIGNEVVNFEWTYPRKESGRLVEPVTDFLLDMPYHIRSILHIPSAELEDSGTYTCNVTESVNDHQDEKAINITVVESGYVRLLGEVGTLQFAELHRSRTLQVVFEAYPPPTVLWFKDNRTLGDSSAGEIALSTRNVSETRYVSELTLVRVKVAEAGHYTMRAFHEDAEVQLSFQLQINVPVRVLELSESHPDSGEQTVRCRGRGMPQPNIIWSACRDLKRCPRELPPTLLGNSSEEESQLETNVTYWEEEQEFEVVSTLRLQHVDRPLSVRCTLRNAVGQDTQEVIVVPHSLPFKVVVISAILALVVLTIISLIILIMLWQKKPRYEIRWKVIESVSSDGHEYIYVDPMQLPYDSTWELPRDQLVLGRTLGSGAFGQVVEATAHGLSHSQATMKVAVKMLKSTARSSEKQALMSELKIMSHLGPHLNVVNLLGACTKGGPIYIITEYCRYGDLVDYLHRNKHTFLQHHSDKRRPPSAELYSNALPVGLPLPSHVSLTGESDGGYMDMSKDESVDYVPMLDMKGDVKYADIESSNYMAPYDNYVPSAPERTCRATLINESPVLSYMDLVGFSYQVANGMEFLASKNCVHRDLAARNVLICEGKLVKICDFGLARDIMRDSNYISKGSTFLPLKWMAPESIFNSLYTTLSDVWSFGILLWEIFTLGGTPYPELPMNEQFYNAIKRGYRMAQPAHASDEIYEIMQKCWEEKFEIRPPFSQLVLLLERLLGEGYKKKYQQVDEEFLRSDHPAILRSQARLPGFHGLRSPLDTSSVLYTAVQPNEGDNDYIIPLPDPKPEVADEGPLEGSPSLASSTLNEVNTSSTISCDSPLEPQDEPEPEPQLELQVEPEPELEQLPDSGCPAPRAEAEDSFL
PRKCZ (human), sequence (Q05513 whole entry, looked up): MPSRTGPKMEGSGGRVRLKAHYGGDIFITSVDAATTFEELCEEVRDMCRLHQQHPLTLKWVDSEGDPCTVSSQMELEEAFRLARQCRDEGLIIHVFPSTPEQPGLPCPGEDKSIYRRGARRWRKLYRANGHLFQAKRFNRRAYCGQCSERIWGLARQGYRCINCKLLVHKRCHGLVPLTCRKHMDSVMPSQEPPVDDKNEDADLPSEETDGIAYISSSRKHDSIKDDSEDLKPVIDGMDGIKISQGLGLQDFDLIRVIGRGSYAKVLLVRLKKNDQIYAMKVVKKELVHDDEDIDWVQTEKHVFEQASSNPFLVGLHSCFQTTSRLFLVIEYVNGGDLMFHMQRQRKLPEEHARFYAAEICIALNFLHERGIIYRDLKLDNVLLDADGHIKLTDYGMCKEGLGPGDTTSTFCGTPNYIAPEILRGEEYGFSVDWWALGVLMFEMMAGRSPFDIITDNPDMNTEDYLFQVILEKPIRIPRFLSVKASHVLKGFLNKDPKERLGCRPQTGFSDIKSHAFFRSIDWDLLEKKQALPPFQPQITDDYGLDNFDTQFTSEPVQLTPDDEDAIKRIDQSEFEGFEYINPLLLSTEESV
EGFR (human), sequence (P00533 whole entry, looked up): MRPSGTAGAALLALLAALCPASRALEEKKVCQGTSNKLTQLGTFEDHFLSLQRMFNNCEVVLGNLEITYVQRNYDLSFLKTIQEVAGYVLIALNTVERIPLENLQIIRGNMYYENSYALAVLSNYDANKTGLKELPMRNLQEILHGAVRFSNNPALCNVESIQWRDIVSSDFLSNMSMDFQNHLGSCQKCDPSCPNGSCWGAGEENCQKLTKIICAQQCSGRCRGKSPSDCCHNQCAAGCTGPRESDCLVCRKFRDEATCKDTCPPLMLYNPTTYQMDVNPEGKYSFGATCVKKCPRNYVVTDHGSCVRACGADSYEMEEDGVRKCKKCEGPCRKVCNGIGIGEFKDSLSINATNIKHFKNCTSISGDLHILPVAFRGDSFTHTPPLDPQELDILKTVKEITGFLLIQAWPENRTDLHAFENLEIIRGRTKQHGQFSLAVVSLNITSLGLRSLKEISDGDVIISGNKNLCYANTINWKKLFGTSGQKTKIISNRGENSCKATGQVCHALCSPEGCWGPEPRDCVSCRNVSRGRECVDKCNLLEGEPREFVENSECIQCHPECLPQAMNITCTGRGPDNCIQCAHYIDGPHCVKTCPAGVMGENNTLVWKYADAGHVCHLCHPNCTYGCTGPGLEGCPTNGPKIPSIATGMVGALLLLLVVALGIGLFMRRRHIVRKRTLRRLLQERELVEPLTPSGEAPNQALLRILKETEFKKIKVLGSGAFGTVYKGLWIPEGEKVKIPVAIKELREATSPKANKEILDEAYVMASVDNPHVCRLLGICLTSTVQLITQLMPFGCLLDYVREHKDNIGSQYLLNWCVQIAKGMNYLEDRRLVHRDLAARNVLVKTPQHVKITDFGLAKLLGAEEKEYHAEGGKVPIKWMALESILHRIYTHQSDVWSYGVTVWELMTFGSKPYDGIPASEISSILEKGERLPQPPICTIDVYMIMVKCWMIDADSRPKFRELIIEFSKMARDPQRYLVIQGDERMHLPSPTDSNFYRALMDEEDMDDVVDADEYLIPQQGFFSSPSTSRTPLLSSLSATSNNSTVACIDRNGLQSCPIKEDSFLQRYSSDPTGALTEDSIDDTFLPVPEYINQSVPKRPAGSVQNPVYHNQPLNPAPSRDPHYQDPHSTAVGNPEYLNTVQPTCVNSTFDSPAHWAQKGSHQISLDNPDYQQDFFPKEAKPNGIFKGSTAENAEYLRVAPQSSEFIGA
AKT2 (human), sequence (P31751 whole entry, looked up): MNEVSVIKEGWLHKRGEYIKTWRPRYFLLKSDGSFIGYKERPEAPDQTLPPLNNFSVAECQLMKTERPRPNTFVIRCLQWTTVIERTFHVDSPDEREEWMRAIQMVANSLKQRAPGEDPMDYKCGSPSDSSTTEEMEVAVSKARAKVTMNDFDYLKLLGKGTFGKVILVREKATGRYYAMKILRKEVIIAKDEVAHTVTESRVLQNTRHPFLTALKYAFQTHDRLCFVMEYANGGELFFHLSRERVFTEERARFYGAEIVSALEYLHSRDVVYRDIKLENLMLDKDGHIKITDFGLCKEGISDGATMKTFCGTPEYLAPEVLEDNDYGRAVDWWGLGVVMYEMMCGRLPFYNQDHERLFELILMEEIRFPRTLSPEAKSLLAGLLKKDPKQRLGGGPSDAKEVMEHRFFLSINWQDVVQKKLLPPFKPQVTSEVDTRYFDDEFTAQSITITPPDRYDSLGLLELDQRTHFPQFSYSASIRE

C[C@@H](Nc1nc2c(C#CC3CC3)c[nH]c(=O)c2c2cc(-c3cn[nH]c3)ccc12)C(C)(C)C
residual activity ([1]; compound 1.0 µM): 74%
residual activity ([2]; compound 1.0 µM): 60%
residual activity ([3]; compound 1.0 µM): 102%
residual activity ([4]; compound 1.0 µM): 41%
residual activity ([5]; compound 1.0 µM): 111%
residual activity ([6]; compound 1.0 µM): 95%
residual activity ([7]; compound 1.0 µM): 90%
residual activity ([8]; compound 1.0 µM): 108%
residual activity ([9]; compound 1.0 µM): 116%
residual activity ([10]; compound 1.0 µM): 102%
residual activity ([11]; compound 1.0 µM): 104%
residual activity ([12]; compound 1.0 µM): 106%
residual activity ([13]; compound 1.0 µM): 75%
residual activity ([14]; compound 1.0 µM): 137%
residual activity ([15]; compound 1.0 µM): 107%
residual activity ([16]; compound 1.0 µM): 102%
residual activity ([17]; compound 1.0 µM): 104%
residual activity ([18]; compound 1.0 µM): 32%
residual activity ([19]; compound 1.0 µM): 82%
residual activity ([20]; compound 1.0 µM): 125%
residual activity ([21]; compound 1.0 µM): 58%
residual activity ([22]; compound 1.0 µM): 75%
residual activity ([23]; compound 1.0 µM): 44%
residual activity ([24]; compound 1.0 µM): 43%
residual activity ([25]; compound 1.0 µM): 104%
residual activity ([26]; compound 1.0 µM): 25%
residual activity ([27]; compound 1.0 µM): 62%
residual activity ([28]; compound 1.0 µM): 106%
residual activity ([29]; compound 1.0 µM): 10%
residual activity ([30]; compound 1.0 µM): 116%
residual activity ([31]; compound 1.0 µM): 106%
residual activity ([32]; compound 1.0 µM): 10%
residual activity ([33]; compound 1.0 µM): 96%
residual activity ([34]; compound 1.0 µM): 108%
residual activity ([35]; compound 1.0 µM): 6%
residual activity ([36]; compound 1.0 µM): 88%
residual activity ([37]; compound 1.0 µM): 86%
residual activity ([38]; compound 1.0 µM): 106%
residual activity ([39]; compound 1.0 µM): 71%
residual activity ([40]; compound 1.0 µM): 67%
residual activity ([41]; compound 1.0 µM): 36%

O=C(N[C@@H](COc1ccc2[nH]c(=O)[nH]c2c1)c1ccccc1)c1cccn(Cc2ccc(F)c(F)c2)c1=O
residual activity ([1]; compound 10.0 µM): 108%
residual activity ([2]; compound 10.0 µM): 101%
residual activity ([3]; compound 10.0 µM): 113%
residual activity ([4]; compound 10.0 µM): 104%
residual activity ([5]; compound 10.0 µM): 101%
residual activity ([6]; compound 10.0 µM): 102%
residual activity ([7]; compound 10.0 µM): 103%
residual activity ([8]; compound 10.0 µM): 106%
residual activity ([9]; compound 10.0 µM): 89%
residual activity ([10]; compound 10.0 µM): 102%
residual activity ([11]; compound 10.0 µM): 104%
residual activity ([12]; compound 10.0 µM): 113%
residual activity ([13]; compound 10.0 µM): 103%
residual activity ([14]; compound 10.0 µM): 102%
residual activity ([15]; compound 10.0 µM): 95%
residual activity ([16]; compound 10.0 µM): 101%
residual activity ([17]; compound 10.0 µM): 110%
residual activity ([18]; compound 10.0 µM): 101%
residual activity ([19]; compound 10.0 µM): 113%
residual activity ([20]; compound 10.0 µM): 100%
residual activity ([21]; compound 10.0 µM): 108%
residual activity ([22]; compound 10.0 µM): 100%
residual activity ([23]; compound 10.0 µM): 107%
residual activity ([24]; compound 10.0 µM): 103%
residual activity ([25]; compound 10.0 µM): 98%
residual activity ([26]; compound 10.0 µM): 113%
residual activity ([27]; compound 10.0 µM): 116%
residual activity ([28]; compound 10.0 µM): 117%
residual activity ([29]; compound 10.0 µM): 96%
residual activity ([30]; compound 10.0 µM): 100%
residual activity ([31]; compound 10.0 µM): 96%
residual activity ([32]; compound 10.0 µM): 107%
residual activity ([33]; compound 10.0 µM): 102%
residual activity ([34]; compound 10.0 µM): 107%
residual activity ([35]; compound 10.0 µM): 98%
residual activity ([36]; compound 10.0 µM): 91%
residual activity ([37]; compound 10.0 µM): 97%
residual activity ([38]; compound 10.0 µM): 115%
residual activity ([39]; compound 10.0 µM): 115%
residual activity ([40]; compound 10.0 µM): 104%
residual activity ([41]; compound 10.0 µM): 94%

Source: the kinase profiling compilation of Christmann-Franck et al. (2016)
